The text below walks through data of PMC10673058, “In Silico and In Vitro Search for Dual Inhibitors of the Trypanosoma brucei and Leishmania major Pteridine Reductase 1 and Dihydrofolate Reductase” (Molecules, 2023).

Like-named read-outs stand apart in the source and are kept apart here.

For orientation: IC50 means the concentration that gives 50% inhibition. For orientation: inhibition means the drop in the measured response relative to a control, in per cent. Usually EC50 stands for the midpoint of the concentration-response curve.

Assay [1] concerns the target T1, hDHFR (Homo sapiens, UniProt P00374).
T1 construct: His; host or cells: E. coli BL21 (DE3), vector pET 15b::hDHFRHis
T1 sequence (P00374 1-187): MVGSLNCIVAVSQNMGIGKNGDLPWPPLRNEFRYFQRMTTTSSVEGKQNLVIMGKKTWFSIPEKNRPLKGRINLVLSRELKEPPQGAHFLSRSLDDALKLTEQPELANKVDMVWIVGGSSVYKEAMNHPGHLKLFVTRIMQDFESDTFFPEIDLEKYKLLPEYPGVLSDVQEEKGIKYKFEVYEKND
In words: Spectrophotometric enzyme inhibition assay, recombinant hDHFR (selectivity). Type of assay: biochemical. To be noted: for inhibition at 50 µM: set compound concentration of 50 μM, read-out: relative inhibition of hDHFR; for EC50: read-out: EC50 hDHFR (footnote a). As to the method: For 15 compounds, there was enough substance available to be tested in selectivity studies against hDHFR.
The used hDHFR concentration was 0.64 mg/mL, with a specific activity of 0.62 U/mg. All measurements were carried out using the saturating concentrations for dihydrofolate (100 μM) and NADPH (50 μM) in Buffer C (50 mM Tris/HCl (pH 7.6), 250 mM NaCl, 10 mM BME). The saturating conditions for hDHFR were determined using the diagrams depicted in Figure S20 in the Supplementary Materials.
(§1) The inhibitory effect of the selected natural products was investigated by testing the DMSO solution of each compound at a constant concentration of 100 μM for TbPTR1 and 50 μM for LmPTR1, TbDHFR, and LmDHFR, as well as hDHFR. The concentrations of the cofactor and substrates were set at the previously determined saturating conditions (Section 4.2.5). Each test compound was incubated for 20 min with the respective enzyme and NADPH to ensure a sufficient interaction time before the reaction was induced by the addition of the substrate. The enzymatic activity was determined in duplicates and correlated with a reference that contained just DMSO, instead of an inhibitor. The enzymatic activity of the reference was normalized to 100%.
(§2) The half-maximal inhibitory concentration (IC50) of the natural products was determined in triplicate, using at least five different inhibitor concentrations against a reference containing no inhibitor. The enzymatic activity was documented and analyzed and the IC50 value was determined by nonlinear regression using GraphPad Prism 9 (GraphPad Software Inc., La Jolla, CA, USA).

Assay [2] addresses T2, LmDHFR (Leishmania major, UniProt P07382).
T2 construct: The DNA fragment encoding LmDHFR was amplified by Phusion DNA polymerase; His6 (N); made in house; host or cells: E. coli BL21(DE3), vector pET 11D::LmDHFRHis
T2 sequence (P07382 26-229 limits assumed): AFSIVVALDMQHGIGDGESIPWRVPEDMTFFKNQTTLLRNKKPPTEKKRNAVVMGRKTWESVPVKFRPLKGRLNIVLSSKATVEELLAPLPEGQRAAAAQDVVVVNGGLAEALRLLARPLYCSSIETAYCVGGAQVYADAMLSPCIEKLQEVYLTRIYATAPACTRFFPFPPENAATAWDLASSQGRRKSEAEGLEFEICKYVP
In words: Spectrophotometric enzyme inhibition assay, recombinant LmDHFR. In kind it is biochemical. As to the method:
(§3) Based on the in vitro assays against TbPTR1 and LmPTR1 performed in the previous works of our group, as well as the in silico results obtained from the current study, a total of 47 natural products were tested against the target enzymes. […] The concentration-effect curves for the IC50 and EC50 values that were obtained in the present study are depicted in Supplementary Materials Figures S21–S42.
The TbDHFR concentration was measured to be 0.04 mg/mL and a specific activity of 38.1 U/mg was calculated. The concentration of LmDHFR was 0.05 mg/mL with a specific activity of 56.2 U/mg. All measurements were carried out using the saturating concentrations for dihydrofolate (50 μM) and NADPH (150 μM) in Buffer C (50 mM Tris/HCl (pH 7.6), 250 mM NaCl, 10 mM BME). The saturating conditions for TbDHFR and LmDHFR were determined using the diagrams depicted in Figures S17 and S19 in the Supplementary Materials.
as §1, §2

The target of assay [3] is T3, LmPTR1 (Leishmania major, UniProt Q01782).
T3 construct: His6 (N); made in house; host or cells: E. coli BL21 (DE3), vector pET 15b::LmPTR1His (strain from the group of M. Paola Costi, Modena)
T3 sequence (Q01782 1-288): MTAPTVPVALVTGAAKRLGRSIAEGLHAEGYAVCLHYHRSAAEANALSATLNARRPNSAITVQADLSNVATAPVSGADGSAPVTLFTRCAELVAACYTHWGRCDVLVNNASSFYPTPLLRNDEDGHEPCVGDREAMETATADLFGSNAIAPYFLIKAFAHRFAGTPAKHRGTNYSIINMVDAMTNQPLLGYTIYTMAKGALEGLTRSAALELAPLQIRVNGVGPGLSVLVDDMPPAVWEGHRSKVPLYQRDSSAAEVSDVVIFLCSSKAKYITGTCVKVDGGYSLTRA
Also on record: method as in PMID 29211037.

The target of assay [4] is T4, TbPTR1 (Trypanosoma brucei brucei, UniProt O76290).
T4 construct: His6 (N); made in house; host or cells: E. coli BL21 (DE3), vector pET 15b::TbPTR1His (strain from the group of M. Paola Costi, Modena)
T4 sequence (O76290 1-268): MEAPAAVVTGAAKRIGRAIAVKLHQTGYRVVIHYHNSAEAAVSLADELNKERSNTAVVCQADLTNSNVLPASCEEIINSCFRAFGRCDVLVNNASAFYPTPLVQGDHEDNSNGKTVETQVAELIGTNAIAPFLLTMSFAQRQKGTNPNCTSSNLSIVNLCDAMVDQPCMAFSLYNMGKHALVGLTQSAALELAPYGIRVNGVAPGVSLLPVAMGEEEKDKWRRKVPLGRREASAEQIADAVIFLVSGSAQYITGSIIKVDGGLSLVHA

Assay [5] concerns the target T4, TbPTR1. The experiment in a line: Dilution assay for reversible/irreversible inhibition of TbPTR1. Type of assay: biochemical. To be noted: inhibitor concentration near IC50. An excerpt: The catalytic center of TbPTR1 contains a cysteine residue (TbCys168) in close proximity to the substrate/inhibitor binding site. In our previous publication, we mentioned the possibility that Sesquiterpene Lactones 1 and 2 might interact as Michael acceptors with TbCys168 by covalent bond formation with its thiol group. Therefore, we have now subjected a selection of natural product inhibitors containing Michael acceptors (1, 2, 5, 17) to initial testing for irreversible inhibition, according to the dilution method described by Bisswanger (see Section 4.2.9).
In this method, the enzyme activity of the respective enzyme-inhibitor mixture is measured before and after a defined dilution (in this study, 1:2). In the absence of an inhibitor, dilution decreases the enzyme activity proportionally to the dilution factor. […] A reversible inhibitor, on the other hand, will dissociate upon dilution, resulting in a weaker decrease in activity than what corresponds to the dilution effect. In the presence of Inhibitors 1 and 2, the decrease in TbPTR1 activity upon the 1:2 dilution was almost proportional to the dilution factor, i.e., only 9.5% and 6.8% activity, respectively, were recovered compared to the reference. This would indeed support an irreversible mechanism of inhibition. […] However, further investigations on these compounds’ mechanisms of inhibition are under way.
To assign an either reversible or irreversible inhibition mechanism to selected compounds, the enzymatic activity of an enzyme-inhibitor mixture was determined before and after a defined dilution, using the reaction conditions described in Section 4.2.5 [16].
Two equivalent solutions with the respective enzyme and inhibitor combination were prepared, one of them being diluted with buffer in a 1:2 ratio shortly before the reaction was started by adding the substrate. The respective inhibitor concentration was set near the IC50 value. The substrate and cofactor concentrations were kept constant in both reaction mixtures. All measurements were carried out in duplicates against a reference containing DMSO instead of the inhibitor. […] If a reversible inhibitor was present, a higher degree of activity recovery (>>10%) could be observed than what corresponds to the dilution factor due to the partial dissociation of the inhibitor from the enzyme upon dilution. The percentual changes in the enzymatic activity of the undiluted and diluted test solution were compared and evaluated to decide the mechanism of inhibition.

Assay [6] has as its target T3, LmPTR1. In words: Spectrophotometric enzyme inhibition assay, recombinant LmPTR1. In kind it is biochemical. As to the method: as §3
(§4) The used TbPTR1 concentration was 3.23 mg/mL, with a specific activity of 0.03 U/mg. The measurements were carried out using the enzyme’s individual saturating concentrations for folic acid (8 μM) and NADPH (150 μM) in Buffer A (50 mM Tris/HCl (pH 7.6), 250 mM NaCl). For LmPTR1, the protein concentration was 5.02 mg/mL and the specific activity was calculated to be 0.29 U/mg. Buffer B (50 mM NaH2PO4 (pH 6.0), 100 mM NaCl) was used for all LmPTR1 measurements and the saturating concentrations amounted to 50 μM of folic acid and 200 μM of NADPH. The saturating conditions of the PTR1 enzymes were determined using the diagrams depicted in Figures S16 and S18 in the Supplementary Materials.
as §1, §2

Assay [7] deals with T5, TbDHFR (Trypanosoma brucei brucei, UniProt Q27783).
T5 construct: pET 11D::TbDHFRHis vector design for the recombinant overexpression of TbDHFR in E. coli; His; made in house; host or cells: E. coli BL21(DE3), vector pET 11D::TbDHFRHis
In words: Spectrophotometric enzyme inhibition assay, recombinant TbDHFR. Particulars: read-out: IC50 TbDHFR. Type of assay: biochemical. The method, then:
Based on the in vitro assays against TbPTR1 and LmPTR1 performed in the previous works of our group, as well as the in silico results obtained from the current study, a total of 47 natural products were tested against the target enzymes.
The saturating conditions for TbDHFR and LmDHFR were determined using the diagrams depicted in Figures S17 and S19 in the Supplementary Materials.
as §1, §2

The target in assay [8] is T4, TbPTR1. In words: Spectrophotometric enzyme inhibition assay, recombinant TbPTR1. In kind it is biochemical. As to the method:
as §3, §4, §1, §2

Assay [9] concerns T. brucei. Particulars: read-out: EC50 in vitro against T. brucei; cited from earlier work.
The test system of assay [10] is L. major. To be noted: read-out: EC50 against L. major; cited from earlier work.
Where [11] appears, read: read-out: IC50 LmPTR1; from previous study; cited from earlier work.

T5 sequence (Q27783 28-238 limits assumed): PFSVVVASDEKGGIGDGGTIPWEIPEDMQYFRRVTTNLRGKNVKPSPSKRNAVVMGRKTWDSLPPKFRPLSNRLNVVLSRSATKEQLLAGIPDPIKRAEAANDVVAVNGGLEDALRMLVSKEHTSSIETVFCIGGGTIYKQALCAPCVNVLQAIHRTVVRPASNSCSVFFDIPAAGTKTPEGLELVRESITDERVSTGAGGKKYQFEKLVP

`O=C(OC1Cc2c(O)cc(O)cc2OC1c1ccc(O)c(O)c1)c1cc(O)c(O)c(O)c1` (single isomer, unassigned; (-)) [Compound 3, (−)-catchin-3-gallate]: the IC50 in assay [1] is 4.2 µM; in assay [2], 0.6 µM; in assay [3] (setting [11]), 75.3 µM; in assay [4] (read-out: IC50 TbPTR1; from previous study; cited from earlier work) it was greater than 100 µM. Also, the inhibition at 50 µM in assay [1] was greater than 50%.
As for `C=C1C(=O)O[C@@H]2/C=C(\CO)CC/C=C(\C)C[C@H](OC(=O)C(=C)[C@H](O)CO)[C@@H]12` [Compound 1, cnicin], the IC50 in assay [1], in assay [6] (read-out: IC50 LmPTR1) and in assay [7] was greater than 50 µM each time. The “inhibition of hDHFR” value in [1] is “no relevant inhibition”. Also, the “TbPTR1 activity recovered upon 1:2 dilution compared to the reference” value in assay [5] was 9.5%. In addition, in assay [6], the “inhibitory effect against LmPTR1” value is “No relevant inhibitory effect”. In addition, in [4] (EC50 value; from previous study; read-out: EC50 TbPTR1 (footnote a); cited from earlier work), the EC50 was 12.2 µM.
`C=C(CO)C(=O)O[C@H]1CC(=C)[C@@H]2C[C@H](O)C(=C)[C@@H]2[C@H]2OC(=O)C(=C)[C@@H]21` [Compound 2, cynaropicrin]: in [1], the IC50 is greater than 50 µM and the “inhibition of hDHFR” value was “no relevant inhibition”. The “TbPTR1 activity recovered upon 1:2 dilution compared to the reference” value in [5] is 6.8%. In assay [6], the IC50 is greater than 50 µM and the “inhibitory effect against LmPTR1” value is recorded as “No relevant inhibitory effect”. In addition, the IC50 in assay [7] (recombinant enzyme, >50 = <50% inhibition at 50 μM) was determined as 7.12 µM.
Take `COc1cc([C@@H]2Oc3cc(-c4oc5cc(O)cc(O)c5c(=O)c4O)ccc3O[C@H]2CO)ccc1O` [Compound 4, 2,3-dehydrosilybin B]: the EC50 in [1] turned out to be 3.8 µM. Besides, in assay [1], the inhibition at 50 µM was greater than 50%. The results for the 50% inhibitory concentration (IC50) in [2], in [8] and in assay [3] (setting [11]) were 2.6 µM, greater than 100 µM and 42.9 µM, respectively.
Take `COc1cc(/C=C/C(=O)CC(=O)/C=C/c2ccc(O)c(OC)c2)ccc1O` [Compound 5, curcumin]: the values for the IC50 in assay [1], in [6] (read-out: IC50 LmPTR1) and in [8] (read-out: IC50 TbPTR1) were 33.9 µM, greater than 50 µM and 18.5 µM, respectively. Moreover, the inhibition at 50 µM in assay [1] was greater than 50%. Further, the EC50 in assay [9] was 2.5 µM; in assay [10] it was 33 µM. The “TbPTR1 activity recovered upon 1:2 dilution compared to the reference” value in assay [5] was found to be 16.6%.
On to `CC(C)=CCc1c(O)cc2oc3cc(O)c(O)c(CCC(C)(C)O)c3c(=O)c2c1O` [Compound 6, garcinone c], for which, in [1], the IC50 amounted to 1.7 µM, the EC50 was determined as 1.7 µM and the inhibition at 50 µM is greater than 50%. Also, the IC50 in assay [2] (read-out: IC50 LmDHFR) worked out at 3 µM. The IC50 in [4] (from previous study; read-out: IC50 TbPTR1; cited from earlier work) was greater than 100 µM.
For `O=C(/C=C/c1ccc(O[C@@H]2O[C@H](CO)[C@@H](O)[C@H](O)[C@H]2O)cc1)c1ccc(O)cc1O` [Compound 7, isoliquiritin], the IC50 in assay [1] is greater than 50 µM; in assay [2], 46.2 µM; in assay [8], greater than 100 µM; in assay [3] (from previous study; read-out: IC50 LmPTR1; cited from earlier work) it was 84.5 µM.
